According to ChEMBL document CHEMBL3885881, “DrugMatrix”:

Species on record: Rattus norvegicus
Test: DrugMatrix - Regimen: Daily Repeat
Assay type: toxicity, organism-based, Sprague-Dawley
Parameters: regimen Daily Repeat, gender Male, age 6-8 weeks
Conditions: in vivo, po, route oral GAVAGE, vehicle .5 % CMC; for ABSOLUTE BASOPHIL / ABSOLUTE EOSINOPHIL / ABSOLUTE LYMPHOCYTE / ABSOLUTE MONOCYTE / ABSOLUTE SEGMENTED NEUTROPHIL / BASOPHIL / EOSINOPHIL / ERYTHROCYTE COUNT / HEMATOCRIT / HEMOGLOBIN / LEUKOCYTE COUNT / LYMPHOCYTE / MEAN CORPUSCULAR HEMOGLOBIN / MEAN CORPUSCULAR HEMOGLOBIN CONCENTRATION / MEAN CORPUSCULAR VOLUME / MONOCYTE / NEUTROPHIL / NUCLEATED RED BLOOD CELLS / PLATELET COUNT: tissue Blood; for ALANINE AMINOTRANSFERASE / ALBUMIN / ALKALINE PHOSPHATASE / ASPARTATE AMINOTRANSFERASE / BLOOD UREA NITROGEN / CARBON DIOXIDE / CHLORIDE / CHOLESTEROL / CREATINE PHOSPHOKINASE / CREATININE / GLUCOSE / LACTATE DEHYDROGENASE / LIPASE / PHOSPHORUS / POTASSIUM / SODIUM / TOTAL BILIRUBIN / TOTAL PROTEIN / URIC ACID: tissue Plasma
[1] = 1200 mg/kg, 120 h, dose level High, time 5 day
[2] = […], 72 h, dose 3.3 mg/Kg, dose level Low, time 3 day
[3] = […], 120 h, dose 3.3 mg/Kg, dose level Low, time 5 day

## CCC[C@@H]1C[C@@H](C(=O)N[C@@H]([C@H]2O[C@H](SC)[C@H](O)[C@@H](O)[C@H]2O)[C@@H](C)O)N(C)C1 [LINCOMYCIN]
[1]
  ABSOLUTE BASOPHIL: 0 CELLS/uL
  ABSOLUTE EOSINOPHIL: 0 CELLS/uL
  ABSOLUTE LYMPHOCYTE: 15154 CELLS/uL
  ABSOLUTE MONOCYTE: 0 CELLS/uL
  ABSOLUTE SEGMENTED NEUTROPHIL: 1379.33 CELLS/uL
  BASOPHIL: 0%
  EOSINOPHIL: 0%
  ERYTHROCYTE COUNT: 5.63 x10E6/uL
  HEMATOCRIT: 35.37%
  HEMOGLOBIN: 14.33 G/DL
  LEUKOCYTE COUNT: 16.53 x10E3/uL
  LYMPHOCYTE: 91.67%
  MEAN CORPUSCULAR HEMOGLOBIN: 25.5 pg
  MEAN CORPUSCULAR HEMOGLOBIN CONCENTRATION: 40.53 G/DL
  MEAN CORPUSCULAR VOLUME: 62.9 fL
  MONOCYTE: 0%
  NEUTROPHIL: 8.33%
  NUCLEATED RED BLOOD CELLS: 0 /100WBC
  PLATELET COUNT: 1331 x10E3/uL
  ALANINE AMINOTRANSFERASE: 58.33 u/L
  ALBUMIN: 4.13 G/DL
  ALKALINE PHOSPHATASE: 343.67 u/L
  ASPARTATE AMINOTRANSFERASE: 92.33 u/L
  BLOOD UREA NITROGEN: 18.33 mg/dL
  CARBON DIOXIDE: 25 mmol/L
  CHLORIDE: 100.67 MEQ/L
  CHOLESTEROL: 73.67 mg/dL
  CREATINE PHOSPHOKINASE: 558 u/L
  CREATININE: 0.27 mg/dL
  GLUCOSE: 137 mg/dL
  LACTATE DEHYDROGENASE: 505.33 u/L
  LIPASE: 12 u/L
  PHOSPHORUS: 12.77 mg/dL
  POTASSIUM: 6.92 MEQ/L
  SODIUM: 143.1 MEQ/L
  TOTAL BILIRUBIN: 0.17 mg/dL
  TOTAL PROTEIN: 6.1 G/DL
  URIC ACID: 1.63 mg/dL
[2]
  ABSOLUTE BASOPHIL: 0 CELLS/uL
  ABSOLUTE EOSINOPHIL: 46 CELLS/uL
  ABSOLUTE LYMPHOCYTE: 14091.33 CELLS/uL
  ABSOLUTE MONOCYTE: 108.67 CELLS/uL
  ABSOLUTE SEGMENTED NEUTROPHIL: 1220.67 CELLS/uL
  BASOPHIL: 0%
  EOSINOPHIL: 0.33%
  ERYTHROCYTE COUNT: 5.49 x10E6/uL
  HEMATOCRIT: 34.5%
  HEMOGLOBIN: 13.93 G/DL
  LEUKOCYTE COUNT: 15.47 x10E3/uL
  LYMPHOCYTE: 91%
  MEAN CORPUSCULAR HEMOGLOBIN: 25.43 pg
  MEAN CORPUSCULAR HEMOGLOBIN CONCENTRATION: 40.4 G/DL
  MEAN CORPUSCULAR VOLUME: 63 fL
  MONOCYTE: 0.67%
  NEUTROPHIL: 8%
  NUCLEATED RED BLOOD CELLS: 0 /100WBC
  PLATELET COUNT: 1331.67 x10E3/uL
  ALANINE AMINOTRANSFERASE: 53.67 u/L
  ALBUMIN: 4.23 G/DL
  ALKALINE PHOSPHATASE: 358.67 u/L
  ASPARTATE AMINOTRANSFERASE: 85.33 u/L
  BLOOD UREA NITROGEN: 15.67 mg/dL
  CARBON DIOXIDE: 29.67 mmol/L
  CHLORIDE: 101 MEQ/L
  CHOLESTEROL: 72 mg/dL
  CREATINE PHOSPHOKINASE: 274.33 u/L
  CREATININE: 0.21 mg/dL
  GLUCOSE: 154.67 mg/dL
  LACTATE DEHYDROGENASE: 216.67 u/L
  LIPASE: 9.67 u/L
  PHOSPHORUS: 12.97 mg/dL
  POTASSIUM: 7.32 MEQ/L
  SODIUM: 144.13 MEQ/L
  TOTAL BILIRUBIN: 0.2 mg/dL
  TOTAL PROTEIN: 5.83 G/DL
  URIC ACID: 2.13 mg/dL
[3]
  ABSOLUTE BASOPHIL: 0 CELLS/uL
  ABSOLUTE EOSINOPHIL: 0 CELLS/uL
  ABSOLUTE LYMPHOCYTE: 14059.67 CELLS/uL
  ABSOLUTE MONOCYTE: 0 CELLS/uL
  ABSOLUTE SEGMENTED NEUTROPHIL: 1173.67 CELLS/uL
  BASOPHIL: 0%
  EOSINOPHIL: 0%
  ERYTHROCYTE COUNT: 5.56 x10E6/uL
  HEMATOCRIT: 34.53%
  HEMOGLOBIN: 13.97 G/DL
  LEUKOCYTE COUNT: 15.23 x10E3/uL
  LYMPHOCYTE: 92.33%
  MEAN CORPUSCULAR HEMOGLOBIN: 25.1 pg
  MEAN CORPUSCULAR HEMOGLOBIN CONCENTRATION: 40.43 G/DL
  MEAN CORPUSCULAR VOLUME: 62.13 fL
  MONOCYTE: 0%
  NEUTROPHIL: 7.67%
  NUCLEATED RED BLOOD CELLS: 0 /100WBC
  PLATELET COUNT: 1194.33 x10E3/uL
  ALANINE AMINOTRANSFERASE: 57.33 u/L
  ALBUMIN: 4.37 G/DL
  ALKALINE PHOSPHATASE: 326 u/L
  ASPARTATE AMINOTRANSFERASE: 107.67 u/L
  BLOOD UREA NITROGEN: 17 mg/dL
  CARBON DIOXIDE: 28 mmol/L
  CHLORIDE: 100.33 MEQ/L
  CHOLESTEROL: 76.67 mg/dL
  CREATINE PHOSPHOKINASE: 786.33 u/L
  CREATININE: 0.23 mg/dL
  GLUCOSE: 160.67 mg/dL
  LACTATE DEHYDROGENASE: 134.33 u/L
  LIPASE: 9 u/L
  PHOSPHORUS: 12.5 mg/dL
  POTASSIUM: 6.98 MEQ/L
  SODIUM: 144.77 MEQ/L
  TOTAL BILIRUBIN: 0.17 mg/dL
  TOTAL PROTEIN: 6.33 G/DL
  URIC ACID: 2.3 mg/dL
